# Data from ChEMBL document CHEMBL4837226, “Discovery of pyrrole derivatives for the treatment of glioblastoma and chronic myeloid leukemia” (Eur J Med Chem, 2021).
# The source made the active and inactive calls. The rule behind the calls is not given here.
# Columns and labels:
# [1] = system: U-87 MG; test: Antitumor activity against human U-87MG cells xenografted in BALB/c nu/nu mouse assessed as reduction in CD133 marker expression at 25 mg/kg, ip administered every 2 days for 35 days by DAPI staining based immunofluorescence analysis; assay type: functional, organism-based; details: U-87MG ATCC, time 35.0 day
# [2] = target: DNA topoisomerase II (Homo sapiens) (UniProt P11388+Q02880); test: Inhibition of human topoisomerase II assessed as reduction in decantenation using kinetoplast DNA as a substrate at 100 uM measured after 1 hr by ethidium bromide staining based agarose gel electrophoresis analysis relative to control; assay type: protein assay
# [3] = system: KBM5; test: Induction of apoptosis in human KBM5 cells expressing T315I mutant assessed as decrease in […] expression at 1 to 10 uM measured after 24 hrs by Western blot analysis; assay type: functional, cell-based; details: dose 1-10 µM
# [4] = Cytotoxicity against human U343MG cells assessed as cell growth inhibition by measuring maximum efficacy measured after 72 hrs by MTS colorimetric assay relative to control; assay type: functional; details: U-343MG
# [5] = target: Bcr/Abl fusion protein (Homo sapiens) (UniProt P00519+P11274); test: Inhibition of Bcr-Abl tyrosine phosphorylation in human KBM5 cells expressing T315I mutant at 1 to 10 nM in the presence of ponatinib measured after 24 hrs by western blot analysis; assay type: cell-based; details: dose 1-10 nM
# [6] = system: KU812 cell line; test: Cytotoxicity against Bcr-Abl expressing human KU812 cells assessed as cell growth inhibition measured after 48 hrs by MTT assay; assay type: functional, cell-based; details: KU812, 48 h
# [7] = system: U-87 MG; test: Antitumor activity against human U-87MG cells xenografted in BALB/c nu/nu mouse assessed as reduction in GFAP expression at 25 mg/kg, ip administered every 2 days for 35 days by DAPI staining based immunofluorescence analysis; assay type: functional, organism-based; details: U-87MG ATCC, time 35.0 day
# [8] = system: KBM5; test: Induction of apoptosis in human KBM5 cells expressing T315I mutant assessed as increase in cytochrome C expression at 1 to 10 uM measured after 24 hrs by western blot analysis; assay type: functional, cell-based; details: dose 1-10 µM
# [9] = system: KBM5; test: Cytotoxicity against imatinib mesylate resistant wild-type human KBM5 cells expressing T315I mutant assessed as cell growth inhibition measured after 48 hrs by MTT assay; assay type: functional, cell-based; details: KBM5, 48 h
# [10] = system: KBM5; test: Cytotoxicity against Imatinib mesylate sensitive wild-type human KBM5 cells assessed as cell growth inhibition measured after 48 hrs by MTT assay; assay type: functional, cell-based; details: KBM5, 48 h
# [11] = system: MCF7; test: Cytotoxicity against human MCF7 cells assessed as cell growth inhibition measured after 96 hrs; assay type: functional, cell-based; details: MCF7, 96 h
# [12] = target: Tubulin; test: Inhibition of tubulin polymerization (unknown origin) assessed as reduction in tubulin assembly preincubated for 15 mins followed by GTP addition by spectrophotometric method; assay type: protein-complex assay, Homo sapiens
# [13] = system: U-87 MG; test: Cytotoxicity against human U-87MG cells assessed as cell growth inhibition by measuring maximum efficacy measured after 48 hrs by MTS colorimetric assay relative to control; assay type: functional, U-87MG ATCC
# [14] = target: T1, DNA topoisomerase 1 (Homo sapiens) (UniProt P11387); test: Inhibition of human recombinant topoisomerase I assessed as DNA cleavage using supercoiled pHOT1 plasmid DNA as substrate at 100 uM measured after 1 hr by agarose gel electrophoresis analysis
# T1 sequence (whole entry): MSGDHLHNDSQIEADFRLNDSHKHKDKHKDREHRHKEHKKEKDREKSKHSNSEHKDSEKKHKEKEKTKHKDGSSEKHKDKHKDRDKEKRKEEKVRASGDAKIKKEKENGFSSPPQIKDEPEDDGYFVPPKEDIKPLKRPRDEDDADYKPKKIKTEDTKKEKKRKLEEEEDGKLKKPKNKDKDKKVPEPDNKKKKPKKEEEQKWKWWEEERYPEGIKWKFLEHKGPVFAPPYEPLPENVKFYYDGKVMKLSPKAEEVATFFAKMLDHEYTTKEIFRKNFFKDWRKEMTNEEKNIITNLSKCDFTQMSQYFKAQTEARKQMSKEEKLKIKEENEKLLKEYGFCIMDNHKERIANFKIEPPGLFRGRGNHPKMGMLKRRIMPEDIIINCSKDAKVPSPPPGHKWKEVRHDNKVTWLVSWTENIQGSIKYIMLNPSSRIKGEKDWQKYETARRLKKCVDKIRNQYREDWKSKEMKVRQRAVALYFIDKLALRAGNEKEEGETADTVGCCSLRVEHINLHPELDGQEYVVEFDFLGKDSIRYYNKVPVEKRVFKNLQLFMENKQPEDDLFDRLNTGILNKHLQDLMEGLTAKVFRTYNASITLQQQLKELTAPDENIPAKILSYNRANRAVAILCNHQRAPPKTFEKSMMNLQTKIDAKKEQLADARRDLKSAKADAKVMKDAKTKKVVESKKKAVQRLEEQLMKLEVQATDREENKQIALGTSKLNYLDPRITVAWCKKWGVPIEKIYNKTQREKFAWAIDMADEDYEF
# [15] = target: Tubulin (Homo sapiens) (UniProt P68371+Q9H4B7+P0DPH7+P68366+Q13509+Q71U36+P04350+Q3ZCM7+P07437+P68363+Q9BQE3+Q6PEY2+Q13885+Q9BVA1+Q9BUF5); test: Inhibition of [3H]Colchicine binding to tubulin (unknown origin) at 5 uM measured after 10 mins by DEAE-Cellulose filter method relative to control; assay type: protein-complex assay
# [16] = system: KBM5; test: Potentiation of ponatinib-induced apoptosis human KBM5 cells assessed as increase in apoptotic cells at 5 nM measured after 48 hrs by annexin V staining based flow cytometry analysis; assay type: functional, cell-based
# [17] = system: U-87 MG; test: Antitumor activity against human U-87MG cells xenografted in BALB/c nu/nu mouse assessed as reduction in CD31 marker expression at 25 mg/kg, ip administered every 2 days for 35 days by DAPI staining based immunofluorescence analysis; assay type: functional, organism-based; details: U-87MG ATCC, time 35.0 day
# [18] = system: SW-620; test: Cytotoxicity against human SW-620 cells assessed as cell growth inhibition measured after 48 hrs by XTT dye based assay; assay type: functional; details: SW-620, 48 h
# [19] = system: KBM5; test: Potentiation of ponatinib-induced mitochondrial membrane depolarization in human KBM5 cells expressing T315I mutant at 5 nM in the presence of ponatinib measured upto 48 hrs by JC-1 staining based flow cytometry analysis (Rvb= 32.7 %); assay type: functional; details: time hrs <=48
# [20] = system: KBM5; test: Potentiation of ponatinib-induced apoptosis human KBM5 cells expressing T315I mutant assessed as increase in apoptotic cells at 5 nM measured after 48 hrs by annexin V staining based flow cytometry analysis (reference value: 35 %); assay type: functional
# [21] = system: KU812 cell line; test: Potentiation of ponatinib-induced apoptosis in human KU812 cells assessed as increase in apoptotic cells at 5 nM measured after 48 hrs by annexin V staining based flow cytometry analysis; assay type: functional, cell-based
# [22] = system: U-87 MG; test: Antitumor activity against human U-87MG cells xenografted in BALB/c nu/nu mouse assessed as increase in activated caspase-3 expression at 25 mg/kg, ip administered every 2 days for 35 days by DAPI staining based immunofluorescence analysis; assay type: functional, organism-based; details: U-87MG ATCC, time 35.0 day
# [23] = system: U-87 MG; test: Antitumor activity against human U-87MG cells xenografted in BALB/c nu/nu mouse assessed as reduction in tumor weight at 25 mg/kg, ip administered every 2 days for 35 days; assay type: functional, organism-based; details: U-87MG ATCC, time 35.0 day
# [24] = system: U-87 MG; test: Cytotoxicity against human U-87MG cells assessed as cell growth inhibition measured after 48 hrs by MTS colorimetric assay; assay type: functional, cell-based, U-87MG ATCC
# [25] = system: SW480; test: Cytotoxicity against human SW480 cells assessed as cell growth inhibition measured after 48 hrs by XTT dye based assay; assay type: functional; details: SW480, 48 h
# Bcr/Abl fusion protein (Homo sapiens), sequence (P00519 whole entry, looked up, the tested form may be a part): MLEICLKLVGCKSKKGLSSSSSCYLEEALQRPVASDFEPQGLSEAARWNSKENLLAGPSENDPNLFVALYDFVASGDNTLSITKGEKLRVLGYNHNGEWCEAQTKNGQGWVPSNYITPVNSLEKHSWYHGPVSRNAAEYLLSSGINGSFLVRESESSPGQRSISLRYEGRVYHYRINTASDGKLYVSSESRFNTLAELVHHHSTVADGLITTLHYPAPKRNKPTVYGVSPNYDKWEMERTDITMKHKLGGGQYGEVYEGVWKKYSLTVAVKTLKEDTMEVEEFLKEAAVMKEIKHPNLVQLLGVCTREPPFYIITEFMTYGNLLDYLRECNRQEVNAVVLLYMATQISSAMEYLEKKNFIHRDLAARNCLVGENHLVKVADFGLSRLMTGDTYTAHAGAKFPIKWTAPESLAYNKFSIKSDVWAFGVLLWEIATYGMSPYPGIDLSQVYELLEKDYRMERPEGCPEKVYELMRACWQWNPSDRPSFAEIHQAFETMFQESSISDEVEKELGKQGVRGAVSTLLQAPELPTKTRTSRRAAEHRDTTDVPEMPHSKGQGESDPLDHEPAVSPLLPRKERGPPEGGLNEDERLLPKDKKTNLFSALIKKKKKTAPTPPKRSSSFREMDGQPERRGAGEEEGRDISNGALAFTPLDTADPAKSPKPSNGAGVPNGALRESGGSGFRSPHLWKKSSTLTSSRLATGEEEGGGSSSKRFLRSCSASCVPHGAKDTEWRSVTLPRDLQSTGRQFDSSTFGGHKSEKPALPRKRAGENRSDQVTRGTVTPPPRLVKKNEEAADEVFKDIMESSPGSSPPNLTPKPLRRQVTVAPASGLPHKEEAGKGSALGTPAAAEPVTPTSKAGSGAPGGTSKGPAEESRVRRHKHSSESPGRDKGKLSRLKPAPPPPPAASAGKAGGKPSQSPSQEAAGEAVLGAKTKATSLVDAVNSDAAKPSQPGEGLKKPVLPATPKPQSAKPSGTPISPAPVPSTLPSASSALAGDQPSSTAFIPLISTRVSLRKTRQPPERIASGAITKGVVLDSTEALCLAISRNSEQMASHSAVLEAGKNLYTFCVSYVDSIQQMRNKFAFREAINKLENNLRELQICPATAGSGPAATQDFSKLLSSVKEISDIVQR
# Bcr/Abl fusion protein (Homo sapiens), sequence (P11274 whole entry, looked up, the tested form may be a part): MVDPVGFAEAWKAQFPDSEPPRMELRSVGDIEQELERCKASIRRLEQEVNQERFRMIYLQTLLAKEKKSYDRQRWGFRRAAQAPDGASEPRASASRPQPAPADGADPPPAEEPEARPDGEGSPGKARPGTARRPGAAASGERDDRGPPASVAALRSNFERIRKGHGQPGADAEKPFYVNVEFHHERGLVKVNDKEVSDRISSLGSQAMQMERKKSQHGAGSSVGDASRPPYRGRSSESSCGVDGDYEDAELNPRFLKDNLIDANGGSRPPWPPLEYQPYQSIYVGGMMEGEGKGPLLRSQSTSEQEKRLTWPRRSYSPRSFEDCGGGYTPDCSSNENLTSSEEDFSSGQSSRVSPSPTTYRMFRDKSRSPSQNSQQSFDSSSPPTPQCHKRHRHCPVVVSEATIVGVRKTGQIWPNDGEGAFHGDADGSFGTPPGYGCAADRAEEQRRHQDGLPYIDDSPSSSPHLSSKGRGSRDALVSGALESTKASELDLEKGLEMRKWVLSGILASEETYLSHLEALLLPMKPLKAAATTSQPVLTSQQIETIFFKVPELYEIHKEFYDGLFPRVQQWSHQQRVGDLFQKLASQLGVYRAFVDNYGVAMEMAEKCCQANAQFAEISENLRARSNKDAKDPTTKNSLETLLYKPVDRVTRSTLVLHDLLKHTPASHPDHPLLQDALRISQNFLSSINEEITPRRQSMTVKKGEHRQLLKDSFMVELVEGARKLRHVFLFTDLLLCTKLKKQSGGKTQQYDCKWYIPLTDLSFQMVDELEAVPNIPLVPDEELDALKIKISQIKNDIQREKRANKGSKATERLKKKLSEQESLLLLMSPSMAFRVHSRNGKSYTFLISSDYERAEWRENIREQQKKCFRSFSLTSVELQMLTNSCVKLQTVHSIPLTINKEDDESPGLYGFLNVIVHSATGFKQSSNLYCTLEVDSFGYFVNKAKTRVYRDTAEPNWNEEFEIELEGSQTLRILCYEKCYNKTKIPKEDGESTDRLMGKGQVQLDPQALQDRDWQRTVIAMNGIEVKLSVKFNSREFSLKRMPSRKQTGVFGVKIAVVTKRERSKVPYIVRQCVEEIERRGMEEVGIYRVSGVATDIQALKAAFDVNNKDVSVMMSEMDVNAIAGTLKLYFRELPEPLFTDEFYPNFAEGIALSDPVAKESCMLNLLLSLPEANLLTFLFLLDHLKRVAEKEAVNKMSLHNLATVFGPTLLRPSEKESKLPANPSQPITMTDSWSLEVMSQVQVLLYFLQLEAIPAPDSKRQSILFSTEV
smiles,measurement,setting,value
COc1cc(C(=O)c2cn(-c3ccc(C)cc3)cc2-c2ccsc2)cc(OC)c1OC,Activity,[1],Active
same,inhibition,[2],100%
same,Activity,[3],Active
same,Emax,[4],48.5%
same,inhibition,[5],Active
same,IC50,[6],9.5 nM
same,Activity,[7],Active
same,Activity,[8],Active
same,IC50,[9],8.8 nM
same,IC50,[10],8.2 nM
same,IC50,[11],4 nM
same,IC50,[12],390 nM
same,Emax,[13],55.6%
same,inhibition,[14],Active
same,inhibition,[15],90%
same,Activity,[16],Active
same,Activity,[17],Active
same,IC50,[18],111 nM
same,Activity,[19],56.7%
same,Activity,[20],70%
same,Activity,[21],Active
same,Activity,[22],Active
same,Activity,[23],Active
same,IC50,[24],19.4 nM
same,IC50,[25],656 nM
